Measured values published in patent US20060258748A1 (Chevron U.S.A. Inc., priority 2005, published 2006).

Legend:
[1] = Dissolving compounds for 10 mM stock solutions; assay type: physicochemical; conditions: molecusol, acetic acid, propylene glycol, then hot water
Experimental: Following assay establishment, the test compounds were tested for binding affinities. The concentrations selected for the experiments were chosen according to what was found for memantine in our assay. The first task was to dissolve the compounds and make up the 10 mM stock solution for further experiments. Those compounds that were made into salt format were easy to dissolve in deionized water, but the other compounds were difficult to bring into solution. Several “assay friendly” solvents have been tried, such as molecusol, acetic acid and propylene glycol followed by putting the vial into hot water.

NMDA receptor [2] = assay: [3H]MK-801 binding assay, NMDA receptors in guinea pig brain membranes; conditions: for Relative affinity: compared to that of Memantine
Experimental: Hartley guinea pigs were sacrificed, and their brains were quickly removed and weighed. The brains then were homogenized in 50 mM Tris HCl buffer, pH 7.7, using a Polytron homogenizer. The homogenate was centrifuged at 40,000×g for 15 min, rehomogenized, and centrifuged again. The final pellet was resuspended in Tris-HCl, pH 7.7, at a final concentration of 6.67 mg original wet weight of tissue/ml. […] The samples were then filtered through glass fiber filters on a Tomtec cell harvester. The filters were washed 3 times with 3 ml of cold buffer. Filters were dried overnight and counted next day on a Wallac Betaplate Reader.
The binding experiments were conducted as follows. […] For each compound, graphs were prepared containing individual competition curves obtained for that compound. IC50 values and Hill coefficients were calculated using the program Prism. Ki values were calculated using the Chang Prusoff transformation: Ki═IC50/(1+L/Kd)
where L is radioligand concentration and Kd is the binding affinity of the radioligand, as determined previously by saturation analysis. […] In each experiment, one standard compound was simultaneously run on each 96 well plate.

NMDA receptor [3] = assay: Whole-cell voltage-clamp recording of NMDA evoked currents in hypocretin neurons of hypothalamic slices; assay type: cell-based, mouse; conditions: washout of the compound

| Structure (SMILES) | solubility in assay friendly solvents [1] | Relative affinity (NMDA receptor [2]) | also measured |
| --- | --- | --- | --- |
| OC12CC3C4CC5C6CC7(O)CC5C(C4C1)C(C2)(C7)C36 [MDT-15, 9,15-dihydroxytriamantane] | went into solution | – | – |
| O=C(O)C12CC3CC4C1CC1CC2C(C3)C4(C(=O)O)C1 [MDT-19, 1,6-diamantane dicarboxylic acid] | did not go into solution, or came out with time | 0.091 | – |
| CC12CC3CC4C1CC1CC4[C@](N)(C3)C2C1 [MDT-22, 1-methyl-7-aminodiamantane] | – | – | reversibility of inhibition of NMDA evoked currents upon washout (NMDA receptor [3]): reversible |
| O=C(O)C12CC3CC4C5CC(CC41)CC2C5C3 [MDT-17, 1-diamantane carboxylic acid] | did not go into solution, or came out with time | 0.063 | – |
| CC12CC3CC(C)(C1)CC(N)(C3)C2 [Memantine, 1-amino-3,5-dimethyladamantane, reference compound] | – | 1 | Ki (NMDA receptor [2]; [3H]MK-801 1 nM, guinea pig brain membranes, read-out: Ki at the NMDA site (standard compounds)): 602 ± 27 nM |
| NC12CC3CC4C1CC1CC2C(C3)C4(N)C1 [MDT-4, 1,6-diaminodiamantane] | – | 0.006 | – |
| NC12CC3C4CC5(N)CC3C(C1)C(C5)C4C2 [MDT-5, 4,9-diaminodiamantane] | – | 0.002 | – |
| OC12CC3CC4C1CC1CC4C(O)(C3)C2C1 [MDT-13, 1,7-dihydroxydiamantane] | went into solution | – | – |
| NC12CC3CC4C5CC(CC41)CC2C5C3 [MDT-2, 1-aminodiamantane] | – | 0.094 | – |
| O=C(O)C12CC3C4CC5(C(=O)O)CC3C(C1)C(C5)C4C2 [MDT-20, 4,9-diamantane dicarboxylic acid] | did not go into solution, or came out with time | – | – |
| OC12CC3C4CC5(O)CC3C(C1)C(C5)C4C2 [MDT-14, 4,9-dihydroxydiamantane] | went into solution | – | – |
| NC12CC3C4CC5CC3C(C1)C(C5)C4C2 [MDT-3, 4-aminodiamantane] | – | 0.017 | – |
| OC12CC3CC4C1CC1CC2C(C3)C4(O)C1 [MDT-12, 1,6-dihydroxydiamantane] | went into solution | 0.077 | – |
| CC12CC3CC4C1CC1CC2C(N)(C3)C4(C)C1 (stereo not drawn) [MDT-23, 1,6-dimethyl-2-aminodiamantane] | – | – | reversibility of inhibition of NMDA evoked currents upon washout (NMDA receptor [3]): not reversible |
| OC12CC3CC4C5CC(CC41)CC2C5C3 [MDT-10, 1-hydroxydiamantane] | went into solution | 0.015 | – |
| OC12CC3C4CC5CC3C(C1)C(C5)C4C2 [MDT-11, 4-diamantanol] | went into solution | – | – |
